According to patent US10221163B2 (priority 2015, dated 2019):
Like-named read-outs stand apart in the source and are kept apart here.

Tests used:
IMP-1 = IMP-1 (Serratia marcescens, UniProt P52699); assay: biochemical; format: biochemical; conditions: fluorescence assay, CCF2-FA substrate, 2 pM enzyme, 2 hours at 25° C.; read-out: IMP-1 IC50
How it was run: (§1)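 Inhibitor was mixed with the metallo-β-lactamase and CCF2-FA. After 2 hours at 25° C, fluorescence of the coumarin–fluorescein cephalosporin substrate was read. IC50 was calculated with a 4-parameter fit.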

NDM-1 = NDM-1 (Klebsiella pneumoniae, UniProt C7C422); assay: biochemical; format: biochemical; conditions: fluorescence assay, CCF2-FA substrate, 1 pM enzyme, 2 hours at 25° C.; read-out: NDM-1 IC50
Chain of NDM-1 (C7C422 whole entry, looked up, species assumed): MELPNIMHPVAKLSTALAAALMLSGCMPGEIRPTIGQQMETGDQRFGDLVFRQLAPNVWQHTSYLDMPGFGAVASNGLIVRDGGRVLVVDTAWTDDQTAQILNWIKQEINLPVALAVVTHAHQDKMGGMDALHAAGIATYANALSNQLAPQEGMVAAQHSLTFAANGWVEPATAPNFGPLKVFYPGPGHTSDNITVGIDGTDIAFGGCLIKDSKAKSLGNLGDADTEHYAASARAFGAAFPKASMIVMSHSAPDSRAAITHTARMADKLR
How it was run: as §1

VIM-1 = VIM-1 (Pseudomonas aeruginosa (strain ATCC 15692 / DSM 22644 / CIP 104116 / JCM 14847 / LMG 12228 / 1C / PRS 101 / PAO1), UniProt A0A0F7KYQ8); assay: biochemical; conditions: CCF2-FA substrate, 30 pM enzyme, 2 hours at 25° C.
How it was run: as §1

[1] = tested on: Escherichia coli expressing NDM-1 (CLB30005, CLB30016); format: cell-based; conditions: with imipenem 1 μg/ml; 95% inhibition of bacterial growth
How it was run: (§2)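 Growth by absorbance after 22–24 h at 35°C defined the read-out, with imipenem fixed at 1 μg/ml alongside compound. Inocula came from overnight blood-agar colonies at 35°C, resuspended in saline and diluted 1:100 in 1.1×CAMHB.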

[2] = tested on: Klebsiella pneumoniae expressing VIM-1 (IHMA599644); format: cell-based; conditions: with imipenem 1 μg/ml; 95% inhibition of bacterial growth
How it was run: as §2

[3] = tested on: Serratia marcescens expressing IMP-1 (CL5741); format: cell-based; conditions: with imipenem 1 μg/ml; 95% inhibition of bacterial growth
How it was run: as §2

[4] = tested on: Pseudomonas aeruginosa efflux+ (MB9798), IMP-1; format: cell-based; conditions: concentration restoring susceptibility to imipenem at 2 μg/mL in the presence of a class A, C, D serine β-lactamase inhibitor closely related to relebactam
How it was run: (§3)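 PAO1 pair, broth microdilution; fixed β-lactam (imipenem/ceftazidime) at ~CLSI breakpoint + fixed class A/C BLI for AmpC; serial MBLi titration; endpoint = MBLi conc. restoring susceptibility; MB9798:MB9799 ratio = efflux liability.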

[5] = tested on: Pseudomonas aeruginosa efflux− (MB9799), IMP-1; format: cell-based; conditions: concentration restoring susceptibility to imipenem at 2 μg/mL in the presence of a class A, C, D serine β-lactamase inhibitor closely related to relebactam
How it was run: as §3

[6] = tested on: Pseudomonas aeruginosa MB9798 vs MB9799; conditions: ratio MITC95 PA_9798/MITC95 PA_9799
How it was run: as §3

[7] = fluorescence assay, read-out: VIM-1 IC50

Chain of IMP-1 (P52699 whole entry, looked up, species assumed): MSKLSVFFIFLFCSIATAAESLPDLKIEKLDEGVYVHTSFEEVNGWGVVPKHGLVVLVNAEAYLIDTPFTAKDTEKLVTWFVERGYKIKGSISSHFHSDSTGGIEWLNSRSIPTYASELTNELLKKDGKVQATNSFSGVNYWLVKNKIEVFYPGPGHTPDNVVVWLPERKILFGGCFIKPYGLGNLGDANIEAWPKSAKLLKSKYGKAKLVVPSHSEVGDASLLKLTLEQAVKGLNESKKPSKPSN

SMILES	IC50 (IMP-1)	IC50 (NDM-1)	IC50 (VIM-1; VIM-1 IC50, fluorescence assay)	Escherichia coli expressing NDM-1 (CLB30016) MITC95 [1]	Klebsiella pneumoniae expressing VIM-1 (IHMA599644) MITC95 [2]	Serratia marcescens expressing IMP-1 (CL5741) MITC95 [3]	P. aeruginosa expressing IMP-1, efflux + (MB9798) MITC95 [4]	P. aeruginosa expressing IMP-1, efflux − (MB9799) MITC95 [5]	Efflux ratio [6]	IC50 (VIM-1; [7])
CN1CC[C@@H](CNS(=O)(=O)c2ccc(-c3cccc4sc(N)nc34)c(-c3nnn[nH]3)c2S(N)(=O)=O)C1 [Example 76, 4-(2-amino-1,3-benzothiazol-4-yl)-N^1-{[(3R)-1-methylpyrrolidin-3-yl]methyl}-3-(1H-tetrazol-5-yl)benzene-1,2-disulfonamide]	0.195 nM	0.0285 nM	0.129 nM	3.125 µM	3.125 µM	1.563 µM	0.7813 µM	1.563 µM	0.50	
CN1CC[C@H](CNS(=O)(=O)c2ccc(-c3cccc4sc(N)nc34)c(-c3nnn[nH]3)c2S(N)(=O)=O)C1 [Example 77, 4-(2-amino-1,3-benzothiazol-4-yl)-N1-{[(3S)-1-methylpyrrolidin-3-yl]methyl}-3-(1H-tetrazol-5-yl)benzene-1,2-disulfonamide]	0.166 nM	0.0341 nM	0.133 nM	3.125 µM	6.25 µM	1.563 µM	0.7813 µM	1.563 µM	0.50	
Nc1nc2c(-c3ccc(S(=O)(=O)N[C@H]4CN[C@H](CO)C4)c(S(N)(=O)=O)c3-c3nnn[nH]3)cccc2s1 [Example 78, 4-(2-amino-1,3-benzothiazol-4-yl)-N1-[(3R,5S)-5-(hydroxymethyl)pyrrolidin-3-yl]-3-(1H-tetrazol-5-yl)benzene-1,2-disulfonamide]	0.234 nM	0.0225 nM	0.183 nM	3.125 µM	3.125 µM	1.563 µM	0.7813 µM	1.563 µM	0.50	
Nc1nc2c(-c3ccc(S(=O)(=O)N[C@@H]4CN[C@@H](CO)C4)c(S(N)(=O)=O)c3-c3nnn[nH]3)cccc2s1 [Example 79, 4-(2-amino-1,3-benzothiazol-4-yl)-N1-[(3S,5R)-5-(hydroxymethyl)pyrrolidin-3-yl]-3-(1H-tetrazol-5-yl)benzene-1,2-disulfonamide]	0.283 nM	0.0427 nM	0.181 nM	1.563 µM	3.125 µM	1.563 µM	0.7813 µM	1.563 µM	0.50	
Nc1nc2c(-c3ccc(S(=O)(=O)N[C@@H]4CN[C@H](CO)C4)c(S(N)(=O)=O)c3-c3nnn[nH]3)cccc2s1 [Example 80, 4-(2-amino-1,3-benzothiazol-4-yl)-N1-[(3S,5S)-5-(hydroxymethyl)pyrrolidin-3-yl]-3-(1H-tetrazol-5-yl)benzene-1,2-disulfonamide]	0.336 nM	0.0488 nM	0.158 nM	1.563 µM	3.125 µM	1.563 µM	1.563 µM	1.563 µM	1.00	
Nc1nc2c(-c3ccc(S(=O)(=O)N[C@H]4CN[C@@H](CO)C4)c(S(N)(=O)=O)c3-c3nnn[nH]3)cccc2s1 [Example 81, 4-(2-amino-1,3-benzothiazol-4-yl)-N1-[(3R,5R)-5-(hydroxymethyl)pyrrolidin-3-yl]-3-(1H-tetrazol-5-yl)benzene-1,2-disulfonamide]	0.191 nM	0.0286 nM	0.135 nM	1.563 µM	1.563 µM	1.563 µM	0.7813 µM	1.563 µM	0.50	
Nc1nc2c(-c3ccc(S(=O)(=O)N[C@H]4CN[C@@H](C(=O)O)C4)c(S(N)(=O)=O)c3-c3nnn[nH]3)cccc2s1 [Example 82, (4R)-4-({[4-(2-amino-1,3-benzothiazol-4-yl)-2-sulfamoyl-3-(1H-tetrazol-5-yl)phenyl]sulfonyl}amino)-D-proline]	0.206 nM	0.0493 nM	0.197 nM	6.25 µM	12.5 µM	12.5 µM	3.125 µM	6.25 µM	0.50	
Nc1nc2c(-c3ccc(S(=O)(=O)NC4(CO)CCNC4)c(S(N)(=O)=O)c3-c3nnn[nH]3)cccc2s1 (stereo not drawn) [Example 83, 4-(2-amino-1,3-benzothiazol-4-yl)-N1-[3-(hydroxymethyl)pyrrolidin-3-yl]-3-(1H-tetrazol-5-yl)benzene-1,2-disulfonamide]	0.261 nM	0.0483 nM		3.125 µM	3.125 µM	3.125 µM	0.7813 µM	1.563 µM	0.50	0.208 nM
Nc1nc2c(-c3ccc(S(=O)(=O)NC4(CO)CCNC4)c(S(N)(=O)=O)c3-c3nnn[nH]3)cccc2s1 (stereo not drawn) [Example 84, 4-(2-amino-1,3-benzothiazol-4-yl)-N1-[3-(hydroxymethyl)pyrrolidin-3-yl]-3-(1H-tetrazol-5-yl)benzene-1,2-disulfonamide]	0.403 nM	0.0619 nM		1.563 µM	3.125 µM	3.125 µM	1.563 µM	1.563 µM	1.00	0.27 nM
COCCNCCNS(=O)(=O)c1ccc(-c2cccc3sc(N)nc23)c(-c2nnn[nH]2)c1S(N)(=O)=O [Example 85, 4-(2-aminobenzo[d]thiazol-4-yl)-N1-(2-((2-methoxyethyl)amino)ethyl)-3-(1H-tetrazol-5-yl)benzene-1,2-disulfonamide]	0.205 nM	0.0351 nM		6.25 µM	6.25 µM	3.125 µM	1.563 µM	1.563 µM	1.00	0.147 nM
Nc1nc2c(-c3ccc(S(=O)(=O)NCC4(O)CCNCC4)c(S(N)(=O)=O)c3-c3nnn[nH]3)cccc2s1 [Example 86, 4-(2-aminobenzo[d]thiazol-4-yl)-N^1-((4-hydroxypiperidin-4-yl)methyl)-3-(1H-tetrazol-5-yl)benzene-1,2-disulfonamide]	0.129 nM	0.0275 nM		1.563 µM	6.25 µM	1.563 µM	0.7813 µM	1.563 µM	0.50	0.0756 nM
CC(C)(N)CNS(=O)(=O)c1ccc(-c2cccc3sc(N)nc23)c(-c2nnn[nH]2)c1S(N)(=O)=O [Example 87, N^1-(2-amino-2-methylpropyl)-4-(2-aminobenzo[d]thiazol-4-yl)-3-(1H-tetrazol-5-yl)benzene-1,2-disulfonamide]	0.261 nM	0.0367 nM		3.125 µM	6.25 µM	3.125 µM	0.7813 µM	1.563 µM	0.50	0.197 nM
